Laboratory results: PMC7859440, “Transporter Gene Regulation in Sandwich Cultured Human Hepatocytes Through the Activation of Constitutive Androstane Receptor (CAR) or Aryl Hydrocarbon Receptor (AhR)” (Frontiers in Pharmacology, 2021)
Several values for one entry are separate records, joined by “and”; a condition that tells them apart may be missing. Equal values may be shown once.

Key:
CYP1A2 = conditions: SCHH, 72 h; TCDD 50 nM, OP 50 µM, CITCO 5 µM, PB 1,000 µM (highest conc.); mean ± SD, three donors
Protocol: (§1) Cryopreserved human hepatocytes were quickly thawed at 37°C and then transferred into hepatocyte thawing medium. Cells were pelleted at 100 × g for 10 min and then resuspended in hepatocyte complete plating medium (CP medium). The cells were then seeded at 65,000 cells per well in 96-well collagen I coated plates. After cell attachment (4–6 h post-seeding), CP medium was exchanged for ice-cold complete incubation medium (HI medium) containing BD Matrigel™ at the concentration of 0.25 mg/ml. The cells were then incubated overnight at 37°C in a humidified 5% CO2 incubator. […] Cell death or loss of adhesion of hepatocytes during or after treatment were examined by microscopy.
A RNeasy 96 Kit (Qiagen) was used to extract the total cellular RNA from sandwich cultured hepatocytes in 96-well plates following the manufacturer's instructions. A total volume of 200 μL RNA was obtained via the column elution provided in the RNeasy kit. […] Gene expression for each condition is expressed as a fold-change of mean ± standard deviation (SD) from three independent donors (each performed in triplicate). […]

CYP2B6 = assay: in vitro
Protocol: as §1
(§2) A RNeasy 96 Kit (Qiagen) was used to extract the total cellular RNA from sandwich cultured hepatocytes in 96-well plates following the manufacturer's instructions. A total volume of 200 μL RNA was obtained via the column elution provided in the RNeasy kit. Five μL RNA extraction was mixed with TaqMan® Fast Virus 1-Step Master Mix (Life Technologies) in a final reaction volume of 20 μL and qRT-PCR was achieved using a QuantStudio 6 Flex Real-Time PCR System (Life Technologies), following the manufacturer's instructions. β-actin mRNA expression in the SCHH was used as a house-keeping gene for the normalization of target gene expressions. The mRNA levels in SCHH treated with AhR or CAR activators were expressed by a fold change, compared to the gene expressions without the treatment. […] Gene expression for each condition is expressed as a fold-change of mean ± standard deviation (SD) from three independent donors (each performed in triplicate). All primer and probe sets were purchased from Life Technologies (Table 2). When concentration-dependent induction observed, the in vitro induction mRNA data were fitted using the sigmoid 3-parameter equation in GraphPad Prism (La Jolla, CA) to estimate the in vitro concentration of inducer that produced half the maximum induction values (EC50).

CYP3A4 = assay: in vitro; conditions: for EC50 at 72 h: human
Protocol: as §1, §2

UGT1A1 = assay: gene induction in sandwich-cultured human hepatocytes (qRT-PCR); conditions: for EC50 at 72 h: human, sandwich-cultured human hepatocytes (SCHH)
Protocol: as §1
(§3) A RNeasy 96 Kit (Qiagen) was used to extract the total cellular RNA from sandwich cultured hepatocytes in 96-well plates following the manufacturer's instructions. A total volume of 200 μL RNA was obtained via the column elution provided in the RNeasy kit. Five μL RNA extraction was mixed with TaqMan® Fast Virus 1-Step Master Mix (Life Technologies) in a final reaction volume of 20 μL and qRT-PCR was achieved using a QuantStudio 6 Flex Real-Time PCR System (Life Technologies), following the manufacturer's instructions. β-actin mRNA expression in the SCHH was used as a house-keeping gene for the normalization of target gene expressions. The mRNA levels in SCHH treated with AhR or CAR activators were expressed by a fold change, compared to the gene expressions without the treatment. The 2^−ΔΔCt method ([Livak and Schmittgen, 2001]) was used to analyze the relative changes in gene expression, where the Ct is the cycle number at which the fluorescence in the reaction crosses the preset arbitrary threshold; the ΔCt represents the difference between the Ct target and reference and the ΔΔCt is the difference between the ΔCt of the test and the ΔCt of the preassigned control. Gene expression for each condition is expressed as a fold-change of mean ± standard deviation (SD) from three independent donors (each performed in triplicate). All primer and probe sets were purchased from Life Technologies (Table 2). When concentration-dependent induction observed, the in vitro induction mRNA data were fitted using the sigmoid 3-parameter equation in GraphPad Prism (La Jolla, CA) to estimate the in vitro concentration of inducer that produced half the maximum induction values (EC50).

ABCB1 (MDR1) = assay: as above; type: cell-based; conditions: SCHH, 72 h; TCDD 50 nM, OP 50 µM, CITCO 5 µM, PB 1,000 µM (highest conc.); mean ± SD, three donors
Protocol: as §1, §3

ABCB11 (BSEP) = assay: as above; type: cell-based; conditions: SCHH, 72 h; TCDD 50 nM, OP 50 µM, CITCO 5 µM, PB 1,000 µM (highest conc.); mean ± SD, three donors
Protocol: as §1, §3

ABCC2 (MRP2) = assay: as above; type: cell-based; conditions: SCHH, 72 h; TCDD 50 nM, OP 50 µM, CITCO 5 µM, PB 1,000 µM (highest conc.); mean ± SD, three donors
Protocol: as §1, §3

ABCC3 (MRP3) = assay: as above; type: cell-based; conditions: SCHH, 72 h; TCDD 50 nM, OP 50 µM, CITCO 5 µM, PB 1,000 µM (highest conc.); mean ± SD, three donors
Protocol: as §1, §3

ABCC4 (MRP4) = assay: as above; type: cell-based; conditions: SCHH, 72 h; TCDD 50 nM, OP 50 µM, CITCO 5 µM, PB 1,000 µM (highest conc.); mean ± SD, three donors
Protocol: as §1, §3

ABCC5 (MRP5) = assay: as above; type: cell-based; conditions: SCHH, 72 h; TCDD 50 nM, OP 50 µM, CITCO 5 µM, PB 1,000 µM (highest conc.); mean ± SD, three donors
Protocol: as §1, §3

ABCC6 (MRP6) = assay: as above; type: cell-based; conditions: SCHH, 72 h; TCDD 50 nM, OP 50 µM, CITCO 5 µM, PB 1,000 µM (highest conc.); mean ± SD, three donors
Protocol: as §1, §3

ABCG2 (BCRP) = assay: as above; type: cell-based; conditions: SCHH, 72 h; TCDD 50 nM, OP 50 µM, CITCO 5 µM, PB 1,000 µM (highest conc.); mean ± SD, three donors
Protocol: as §1, §3

SLC22A1 (OCT1) = assay: as above; type: cell-based; conditions: SCHH, 72 h; TCDD 50 nM, OP 50 µM, CITCO 5 µM, PB 1,000 µM (highest conc.); mean ± SD, three donors
Protocol: as §1, §3

SLC47A1 (MATE1) = assay: as above; type: cell-based; conditions: SCHH, 72 h; TCDD 50 nM, OP 50 µM, CITCO 5 µM, PB 1,000 µM (highest conc.); mean ± SD, three donors
Protocol: as §1, §3

SLCO1B1 (OATP1B1) = assay: as above; type: cell-based; conditions: SCHH, 72 h; TCDD 50 nM, OP 50 µM, CITCO 5 µM, PB 1,000 µM (highest conc.); mean ± SD, three donors
Protocol: as §1, §3

SLCO1B3 (OATP1B3) = assay: as above; type: cell-based; conditions: SCHH, 72 h; TCDD 50 nM, OP 50 µM, CITCO 5 µM, PB 1,000 µM (highest conc.); mean ± SD, three donors
Protocol: as §1, §3

SLCO2B1 (OATP2B1) = assay: as above; type: cell-based; conditions: SCHH, 72 h; TCDD 50 nM, OP 50 µM, CITCO 5 µM, PB 1,000 µM (highest conc.); mean ± SD, three donors
Protocol: as §1, §3

SLCO4C1 (OATP4C1) = assay: as above; type: cell-based; conditions: SCHH, 72 h; TCDD 50 nM, OP 50 µM, CITCO 5 µM, PB 1,000 µM (highest conc.); mean ± SD, three donors
Protocol: as §1, §3

SLC10A1 (NTCP) = assay: as above; type: cell-based; conditions: SCHH; for SLC10A1 gene suppression (reduction): 3 days, highest concentration treated
SLC15A1 (PEPT1) = assay: as above; type: cell-based; conditions: SCHH, 72 h; TCDD 50 nM, OP 50 µM, CITCO 5 µM, PB 1,000 µM (highest conc.); mean ± SD, three donors
SLC16A1 (MCT1) = assay: as above; type: cell-based; conditions: SCHH, 72 h; TCDD 50 nM, OP 50 µM, CITCO 5 µM, PB 1,000 µM (highest conc.); mean ± SD, three donors
SLC22A7 (OAT2) = assay: as above; type: cell-based; conditions: SCHH, 72 h; TCDD 50 nM, OP 50 µM, CITCO 5 µM, PB 1,000 µM (highest conc.); mean ± SD, three donors
SLC22A9 (OAT7) = assay: as above; type: cell-based; conditions: SCHH, 72 h; TCDD 50 nM, OP 50 µM, CITCO 5 µM, PB 1,000 µM (highest conc.); mean ± SD, three donors
SLC22A5 (OCTN2) = assay: as above; type: cell-based; conditions: SCHH, 72 h; TCDD 50 nM, OP 50 µM, CITCO 5 µM, PB 1,000 µM (highest conc.); mean ± SD, three donors
SLC29A1 (ENT1) = assay: as above; type: cell-based; conditions: SCHH, 72 h; TCDD 50 nM, OP 50 µM, CITCO 5 µM, PB 1,000 µM (highest conc.); mean ± SD, three donors
SLC29A2 (ENT2) = assay: as above; type: cell-based; conditions: SCHH, 72 h; TCDD 50 nM, OP 50 µM, CITCO 5 µM, PB 1,000 µM (highest conc.); mean ± SD, three donors
SLC51A (OSTα) = assay: as above; type: cell-based; conditions: SCHH, 72 h; TCDD 50 nM, OP 50 µM, CITCO 5 µM, PB 1,000 µM (highest conc.); mean ± SD, three donors
SLC51B (OSTβ) = assay: as above; type: cell-based; conditions: SCHH, 72 h; TCDD 50 nM, OP 50 µM, CITCO 5 µM, PB 1,000 µM (highest conc.); mean ± SD, three donors
[1] = system: 24 hepatic drug transporter genes (mRNA); assay: gene induction in sandwich-cultured human hepatocytes (qRT-PCR), transporter panel; type: cell-based; conditions: sandwich-cultured human hepatocytes (SCHH), generally, 24 transporter genes, read-out: average fold change (fold induction) of transporter genes
CYP1A1 = assay: in vitro; conditions: human
Protocol: as §1
as §3, with “When concentration-dependent induction observed, the in vitro induction mRNA data were fitted using the sigmoid 3-parameter equation in GraphPad Prism (La Jolla, CA) to estimate the in vitro concentration of inducer that produced half the maximum induction values (EC50).” left out

[2] = SCHH, 72 h, TCDD 50 nM, OP 50 µM, CITCO 5 µM, PB 1,000 µM (highest conc.), mean ± SD, three donors

Clc1ccc(-c2nc3sccn3c2C=NOCc2ccc(Cl)c(Cl)c2)cc1 [CITCO, 6-(4-chlorophenyl)imidazo[2,1-b][1,3]thiazole-5-carbaldehyde O-(3,4-dichlorobenzyl)oxime]
EC50 at 72 h (CYP2B6; human, sandwich-cultured human hepatocytes (SCHH)): 0.16 ± 0.04 µM
EC50 at 72 h (UGT1A1): > 5 µM
SLC10A1 gene suppression (reduction) (SLC10A1 (NTCP)): about 2 fold

COc1ccc2[nH]c([S+]([O-])Cc3ncc(C)c(OC)c3C)nc2c1 (stereo not shown) [OP, Omeprazole]
EC50 at 72 h (CYP1A1): 3.34 ± 1.39 µM
EC50 at 72 h (UGT1A1): 28.7 ± 7.32 µM
SLC10A1 gene suppression (reduction) (SLC10A1 (NTCP)): about 2 fold
